Data: patent publication US5234925A (Dana-Farber Cancer Institute, Inc., priority 1991, dated 1993)
Like-named read-outs stand apart in the source and are kept apart here.

How the values were obtained:
[1] = target: T1, Mouse liver FPGS (Mus musculus, UniProt P48760); settings: relative to folic acid (1.0); cited from earlier work
T1 sequence (P48760 43-587): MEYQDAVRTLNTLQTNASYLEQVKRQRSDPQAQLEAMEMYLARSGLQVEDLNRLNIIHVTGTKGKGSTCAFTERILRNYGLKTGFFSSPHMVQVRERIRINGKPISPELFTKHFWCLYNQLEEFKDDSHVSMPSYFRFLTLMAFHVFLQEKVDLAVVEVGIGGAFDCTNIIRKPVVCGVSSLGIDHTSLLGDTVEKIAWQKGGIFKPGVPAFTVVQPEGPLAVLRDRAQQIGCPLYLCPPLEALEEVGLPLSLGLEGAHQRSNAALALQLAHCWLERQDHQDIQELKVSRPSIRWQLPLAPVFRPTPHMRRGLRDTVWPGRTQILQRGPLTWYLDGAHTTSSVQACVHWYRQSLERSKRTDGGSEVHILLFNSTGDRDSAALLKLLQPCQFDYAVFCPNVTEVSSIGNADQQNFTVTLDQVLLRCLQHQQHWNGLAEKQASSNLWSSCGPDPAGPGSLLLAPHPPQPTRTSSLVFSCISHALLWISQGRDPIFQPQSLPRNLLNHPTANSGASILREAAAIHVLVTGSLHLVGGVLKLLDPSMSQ

[2] = tested on: L1210 cells; settings: cited from earlier work; for IC50: 48 h, RPMI 1640 with 10% nondialyzed fetal calf serum
[3] = target: T2, L1210 TS (Mus musculus, UniProt P07607); assay: Inhibition of purified TS from L1210 murine leukemic cells (3H release assay); type: biochemical
T2 construct: purified TS from L1210 murine leukemic cells; endogenous in cells; host or cells: L1210 murine leukemic cells (enzyme purified from them)
T2 sequence (P07607 whole entry): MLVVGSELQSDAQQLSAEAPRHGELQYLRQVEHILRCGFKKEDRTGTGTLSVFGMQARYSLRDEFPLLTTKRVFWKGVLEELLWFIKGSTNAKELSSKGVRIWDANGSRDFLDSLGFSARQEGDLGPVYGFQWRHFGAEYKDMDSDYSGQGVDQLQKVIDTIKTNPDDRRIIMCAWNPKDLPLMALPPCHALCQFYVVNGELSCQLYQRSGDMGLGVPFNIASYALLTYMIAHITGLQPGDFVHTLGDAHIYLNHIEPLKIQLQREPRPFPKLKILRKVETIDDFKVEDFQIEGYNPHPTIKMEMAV
Procedure: ^b Inhibition of purified TS from L1210 cells was determined by the
^3 Hrelease assay method as described previously (Sikora et al.)

[4] = target: T1, Mouse liver FPGS; assay: Substrate activity for partially purified FPGS from mouse liver; type: biochemical
From the text: ^c Substrate activity for partially purified FPGS from mouse liver wa
determined as described previously (Moran et al., Mol. Pharmacol. 27:156,
1985), with relative Vmax and k' values expressed in comparison with […]

[5] = tested on: L1210 cells; assay: Inhibition of growth of L1210 cells in culture; type: cell-based, murine; settings: for IC50: Mus musculus, L1210
Procedure: ^d Cells were incubated in RPMI 1640 medium supplemented with 10%
nondialyzed fetal calf serum, and were counted after 48 h of drug
^e The IC50 for cells grown in the presence of 10 μM dThd
increased only to 0.84 μM.
It was therefore of interest to determine whether 2-aza analogues such as 10 also require both dThd and HX for complete protection from their growth inhibitory effect.

[6] = physiologic pH; cited from earlier work
[7] = compared with reduced folates and MTX; cited from earlier work
[8] = clinical trials; cited from earlier work
[9] = target: T2, L1210 TS; settings: cited from earlier work

For `Nc1nc2ccc(CNc3ccc(C(=O)N[C@@H](CCC(=O)O)C(=O)O)cc3)cc2c(=O)[nH]1` [Compound 1, 5,8-Dideazafolic Acid], the “Vmax (rel), Mouse liver FPGS” value [1] is listed as 1.3, the “k'(rel), Mouse liver FPGS” value [1] is listed as 29 and the IC50 [2] is listed as 2700 nM.

In the case of `O=C(O)CC[C@H](NC(=O)c1ccc(NCc2ccc3nn[nH]c(=O)c3c2)cc1)C(=O)O` [Compound 10, N-[4-(1,2,3-Benzotriazin-4(3H)-on-6-yl)methyl] aminobenzoyl-L-glutamic Acid], the “increase in TS binding” value ([3]; 10 versus 2-desamino analogue 3) is reported as “ca. sixfold”, the Ki ([3]; purified TS from L1210 cells, Table 1) is reported as 330 nM and the “k'(rel) lower than the k'(rel) of 1 or 3” value ([4]; ratio 10 versus 1 or 3) is reported as 4.6 -fold. For the same compound, the “k'(rel) greater than that for CB3717” value ([4]; ratio 10 versus CB3717) was “twofold”, the “Vmax (rel), Mouse liver FPGS” value ([4]; relative to folic acid (1.0)) was 1.6 and the “k'(rel), Mouse liver FPGS” value ([4]; relative to folic acid (1.0), Km (app) divided into Vmax (rel)) was 6.3. For the same compound, the “difference in IC50 with and without dThd compared with 1, 2 and 3” value ([5]; L1210 cells) was “comparable to that reported for 1 and 3, but much lower than that reported for 2”, the “potency against cultured cells relative to 2-desamino-5,8-dideazafolate” value ([5]; L1210 cells, 10 versus 3) was “comparable” and the “difference in IC50 with and without dThd” value ([5]; L1210 cells, dThd 0.84 versus 0.42 μM) was “twofold”. For the same compound, the IC50 ([5]; 10 μM dThd (footnote e), read-out: IC50, L1210 cells grown in the presence of dThd) was 840 nM and the IC50 ([5]; 48 h, RPMI 1640 with 10% nondialyzed fetal calf serum, without dThd, read-out: IC50, L1210 cells) was 420 nM.

In the case of `C#CCN(Cc1ccc2nc(N)[nH]c(=O)c2c1)c1ccc(C(=O)N[C@@H](CCC(=O)O)C(=O)O)cc1` [Compound 2, N^10 -Propargyl-5,8-dideazafolic Acid], the “Vmax (rel), Mouse liver FPGS” value [1] is given as 0.88, the “k'(rel), Mouse liver FPGS” value [1] is given as 2.3 and the “reversal of inhibitory effect on growth of L1210 cells by thymidine plus folinic acid” value ([2]; 5 μM dThd and 5 μM folinic acid) is given as “restored to normal levels”. For the same compound, the “reversal of inhibitory effect on growth of L1210 cells by thymidine” value ([2]; 10 μM thymidine alone) was “not fully reversed”, the “reversal of inhibitory effect on growth of L1210 cells by thymidine plus hypoxanthine” value ([2]; 10 μM thymidine and 50 μM hypoxanthine) was “restored to normal levels” and the IC50 [2] was 3500 nM. For the same compound, the solubility [6] was “low solubility at physiologic pH”, the “transport mechanism of cell entry” value [7] was “distinct from that of reduced folates and MTX” and the “toxicities in clinical use” value [8] was “hepatic and renal toxicities”.

In the case of `O=C(O)CC[C@H](NC(=O)c1ccc(NCc2ccc3nc[nH]c(=O)c3c2)cc1)C(=O)O` [Compound 3, 2-Desamino-5,8-dideazafolic Acid], the Ki ([9]; purified TS from L1210 cells, Table 1, read-out: Ki, L1210 TS) is listed as 2000 nM, the Ki ([9]; reported previously (Jackman et al.), read-out: Ki for TS inhibition) is listed as 2000 nM and the “Vmax (rel), Mouse liver FPGS” value [1] is listed as 1.3. For the same compound, the “k'(rel), Mouse liver FPGS” value [1] was 29 and the IC50 [2] was 430 nM.
